Data on 13 compounds can be found in patent US20200339544A1 (JOINT STOCK COMPANY "BIOCAD", priority 2017, published 2020).

Data set [1] in a line: Enzyme stability in human liver S9 fractions. It counts as in vitro ADME. As to conditions: 0.5 mg/mL pooled human liver S9 fractions; 10 μM compound; 37° C.; pH 7.4; read-out: Stability in liver S9 fractions, Clint. The gist of the method: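 Compound at 10 μM was incubated at 37 °C with 0.5 mg/mL pooled human liver S9, 2 mM β-NAD and 4 mM MgCl2 in 0.1 M sodium phosphate, pH 7.4, then quenched with acetonitrile and analysed chromatographically. T½ and CLint were derived from the slope of log peak area versus time.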

Data set [2] deals with H1975 (lung adenocarcinoma, DM, L828R/T790M). Briefly: Antiproliferative activity on H1975 cells (Alamar Blue). It is filed as cell-based. The conditions noted are these: for IC50: Homo sapiens, NCI-H1975, H1975 cells; for SI IC50(A549)/IC50(DM): selectivity index, A549 vs H1975 cells. Summed up:
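IC50 was fitted with a four-parameter logistic model to Alamar Blue fluorescence (540/590 nm), read 3-5 h after dye addition. Before that, compounds acted on attached H1975 cells, 15*10^3 per well in 2% FBS RPMI-1640, for 72 h at 37 °C, DMSO no more than 1%.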

The mark [3] stands for this setting: average values obtained in several tests, Table 16, read-out: H1975 (DM) IC50.
Where [4] appears, read: antiproliferative test, Table 15, read-out: IC50 H1975 (DM).

SMILES strings stand for the structures. Where a name gives a salt, the structure may show the parent alone. Read-outs that look alike come from different tables or passages of the source.

Regarding `C=CC(=O)Nc1cc(Nc2nccc(C(=O)c3ccc(N4CC(OC)C4)cc3)n2)c(OC)cc1N(C)CCN(C)C` [EGFR_3365_61, N-(2-((2-(dimethylamino)ethyl)(methyl)amino)-4-methoxy-5-((4-(4-(3-methoxyazetidin-1-yl)benzoyl)pyrimidin-2-yl)amino)phenyl)acrylamide], the Intrinsic clearance in human liver S9 fractions at 10 µM in data set [1] came to 12.8 µL/min/mg. For the same compound, the values for the IC50 in data set [2] (setting [3]) and in data set [2] (setting [4]) were 8.1 nM and 8.12 nM, respectively. The “SI IC50(A549)/IC50(DM)” value in data set [2] is 2884.
For `C=CC(=O)Nc1cc(Nc2nccc(C(=O)c3ccc(N4CCN(C)CC4)cc3)n2)c(OC)cc1N(C)CCN(C)C` [EGFR_3365_62, N-(2-((2-(dimethylamino)ethyl)(methyl)amino)-4-methoxy-5-((4-(4-(4-methylpiperazin-1-yl)benzoyl)pyrimidin-2-yl)amino)phenyl)acrylamide formate], the Intrinsic clearance in human liver S9 fractions at 10 µM in data set [1] was 3.7 µL/min/mg. Besides, the values for the IC50 in data set [2] (setting [3]) and in data set [2] (setting [4]) were 22.8 nM and 60.8 nM, respectively. In addition, in data set [2], the “SI IC50(A549)/IC50(DM)” value stood at 539.
The corresponding values for `C=CC(=O)Nc1cc(Nc2nccc(C(=O)c3ccc(N4CCCC4)cc3)n2)c(OC)cc1N(C)CCN(C)C` [EGFR_3365_63, N-(2-((2-(dimethylamino)ethyl)(methyl)amino)-4-methoxy-5-((4-(4-(pyrrolidin-1-yl)benzoyl)pyrimidin-2-yl)amino)phenyl)acrylamide] are 15.6 µL/min/mg, 2 nM, 5.79 nM and 5383.
The matching figures for `C=CC(=O)Nc1cc(Nc2nccc(C(=O)c3ccc(OCCCC)cc3)n2)c(OC)cc1N(C)CCN(C)C` [EGFR_3365_66, N-(5-((4-(4-butoxybenzoyl)pyrimidin-2-yl)amino)-2-((2-(dimethylamino)ethyl)(methyl)amino)-4-methoxyphenyl)acrylamide]: 1.3 µL/min/mg, 34.7 nM, 34.7 nM and 134.
The corresponding values for `C=CC(=O)Nc1cc(Nc2nccc(C(=O)c3ccc(OCC)cc3OCC)n2)c(OC)cc1N(C)CCN(C)C` [EGFR_3365_68, N-(5-((4-(2,4-diethoxybenzoyl)pyrimidin-2-yl)amino)-2-((2-(dimethylamino)ethyl) (methyl)amino)-4-methoxyphenyl)acrylamide] are 14.5 µL/min/mg, 34.6 nM, 34.6 nM and 235.
Regarding `C=CC(=O)Nc1cc(Nc2nccc(C(=O)c3ccc(OC)cc3OC)n2)c(OC)cc1N(C)CCN(C)C` [EGFR_3365_69, N-(5-((4-(2,4-dimethoxybenzoyl)pyrimidin-2-yl)amino)-2-((2-(dimethylamino)ethyl)(methyl)amino)-4-methoxyphenyl)acrylamide], the Intrinsic clearance in human liver S9 fractions at 10 µM in data set [1] worked out at 14.4 µL/min/mg. Moreover, the values for the 50% inhibitory concentration (IC50) in data set [2] (setting [3]) and in data set [2] (setting [4]) were 7.9 nM and 7.93 nM, respectively. The “SI IC50(A549)/IC50(DM)” value in data set [2] was above 1261.
The matching figures for `C=CC(=O)Nc1cc(Nc2nccc(C(=O)c3ccc(OCCC)cc3OCCC)n2)c(OC)cc1N(C)CCN(C)C` [EGFR_3365_70, N-(2-((2-(dimethylamino)ethyl)(methyl)amino)-5-((4-(2,4-dipropoxybenzoyl)pyrimidin-2-yl)amino)-4-methoxyphenyl)acrylamide]: 0.7 µL/min/mg, 203 nM, 203 nM and 22.
The matching figures for `C=CC(=O)Nc1cc(Nc2nccc(C(=O)c3ccc(N(CC)CC)cc3)n2)c(OC)cc1N(C)CCN(C)C` [EGFR_3365_72, N-(5-((4-(4-(diethylamino)benzoyl)pyrimidin-2-yl)amino)-2-((2-(dimethylamino)ethyl)(methyl)amino)-4-methoxyphenyl)acrylamide]: 20.2 µL/min/mg, 11.5 nM, 11.5 nM and 932.
The corresponding values for `C=CC(=O)Nc1cc(Nc2nccc(C(=O)c3ccc(N(C)C)cc3)n2)c(OC)cc1N(C)CCN(C)C` [EGFR_3365_73, N-(5-((4-(4-(dimethylamino)benzoyl)pyrimidin-2-yl)amino)-2-((2-(dimethylamino)ethyl) (methyl)amino)-4-methoxyphenyl)acrylamide] are 11.1 µL/min/mg, 9.5 nM, 10.3 nM and 1678.
On to `C=CC(=O)Nc1cc(Nc2cc(C(=O)c3ccc(-c4cnn(C)c4)cc3)ccn2)c(OC)cc1N(C)CCN(C)C` [EGFR_3365_85, N-(2-((2-(dimethylamino)ethyl)(methyl)amino)-4-methoxy-5-((4-(4-(1-methyl-1H-pyrazol-4-yl)benzoyl)pyridin-2-yl)amino)phenyl) acrylamide], for which the Intrinsic clearance in human liver S9 fractions at 10 µM in data set [1] was determined as 17.8 µL/min/mg. In addition, the IC50 in data set [2] (setting [3]) and in data set [2] (setting [4]) was 138 nM throughout. Further, the “SI IC50(A549)/IC50(DM)” value in data set [2] worked out at 10.
Consider `C=CC(=O)Nc1cc(Nc2nccc(C(=O)c3ccc(N4CCCCC4)cc3)n2)c(OC)cc1N(C)CCN(C)C` [EGFR_3365_90, N-(2-((2-(dimethylamino)ethyl)(methyl)amino)-4-methoxy-5-((4-(4-(piperidin-1-yl)benzoyl)pyrimidin-2-yl)amino)phenyl)acrylamide], for which, in data set [1], the Intrinsic clearance in human liver S9 fractions at 10 µM stood at 23.1 µL/min/mg. The figures for the IC50 in data set [2] (setting [3]) and in data set [2] (setting [4]) were 5 nM and 7.58 nM, respectively. Moreover, in data set [2], the “SI IC50(A549)/IC50(DM)” value amounted to 1060.
The corresponding values for `C=CC(=O)Nc1cc(Nc2nccc(C(=O)c3ccc(OC)cc3OCCC)n2)c(OC)cc1N(C)CCN(C)C` [EGFR_3365_102, N-(2-((2-(dimethylamino)ethyl)(methyl)amino)-4-methoxy-5-((4-(4-methoxy-2-propoxybenzoyl)pyrimidin-2-yl)amino)phenyl)acrylamide] are 21.9 µL/min/mg, 80.5 nM, 80.5 nM and 69.
As to `C=CC(=O)Nc1cc(Nc2nccc(C(=O)c3ccc(N4CCC(N)CC4)cc3)n2)c(OC)cc1N(C)CCN(C)C` [EGFR_3365_121, N-(5-((4-(4-(4-aminopiperidin-1-yl)benzoyl)pyrimidin-2-yl)amino)-2-((2-(dimethylamino)ethyl)(methyl)amino)-4-methoxyphenyl)acrylamide], in data set [1], the Intrinsic clearance in human liver S9 fractions at 10 µM worked out at 1.4 µL/min/mg. The IC50 in data set [2] (setting [3]) and in data set [2] (setting [4]) was 4.21 nM each time. Also, the “SI IC50(A549)/IC50(DM)” value in data set [2] is given as 1983.
